Measured values reported in PubChem BioAssay (NCI).
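Step 1: Grow cells in 96-well plates. Step 2: Expose to compound for 48 hours at 5 concentrations. Step 3: Interpolate endpoints linearly; if unreached, use highest concentration. At the TGI there is no net growth.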

Experiments:
Experiment in all cases: NCI anticancer screen, dose series, 48 h
[1] = tested on: SF-295 CNS
[2] = tested on: COLO 205 colon
[3] = tested on: NCI-H23 lung
[4] = tested on: OVCAR-3 ovarian
[5] = tested on: PC-3 prostate
[6] = tested on: U251 CNS
[7] = tested on: OVCAR-8 ovarian
[8] = tested on: A498 renal
[9] = tested on: CAKI-1 renal
[10] = tested on: KM12 colon

CC(C)(C)OC(=O)NC(Cc1ccc(OCc2ccccc2)cn1)C(=O)N1CCSCC1 (configuration not stated)
TGI [1]: > 100 µM | TGI [2]: 33.1 µM | TGI [3]: > 100 µM | TGI [4]: > 100 µM | TGI [5]: 98.9 µM | TGI [6]: > 100 µM | TGI [7]: > 100 µM | TGI [8]: > 100 µM | TGI [9]: > 100 µM | TGI [10]: > 100 µM

CCCC#CC(O)(C(=O)OC1CCN(C)CC1)C1CCCCC1 (configuration not stated)
TGI [1]: > 100 µM | TGI [2]: > 100 µM | TGI [3]: > 100 µM | TGI [4]: > 100 µM | TGI [5]: > 100 µM | TGI [6]: > 100 µM | TGI [7]: > 100 µM | TGI [8]: > 100 µM | TGI [9]: > 100 µM | TGI [10]: > 100 µM

O=C1/C(=C/c2cccs2)NC(=S)N1CN1CCOCC1
TGI [1]: > 100 µM | TGI [2]: > 100 µM | TGI [3]: > 100 µM | TGI [4]: > 100 µM | TGI [5]: > 100 µM | TGI [6]: > 100 µM | TGI [7]: > 100 µM | TGI [8]: > 100 µM | TGI [10]: > 100 µM

NC12CC3CC4C1CC1CC2C(C3)C4(N)C1
TGI [1]: > 100 µM | TGI [2]: > 100 µM | TGI [3]: > 100 µM | TGI [4]: > 100 µM | TGI [5]: > 100 µM | TGI [6]: > 100 µM | TGI [7]: > 100 µM | TGI [8]: > 100 µM | TGI [9]: > 100 µM | TGI [10]: > 100 µM

COc1ccc(N=C2C(=Nc3ccc(OC)cc3)N(S(=O)(=O)c3ccccc3)C(=S)N2c2ccc(OC)cc2)cc1
TGI [1]: > 100 µM | TGI [2]: > 100 µM | TGI [3]: > 100 µM | TGI [4]: > 100 µM | TGI [5]: > 100 µM | TGI [6]: > 100 µM | TGI [7]: > 100 µM | TGI [9]: > 100 µM | TGI [10]: > 100 µM

CN(C)CCNC1=CC(=O)c2c(O)ccc(O)c2C1=O
TGI [1]: 24.3 µM | TGI [2]: 3.63 µM | TGI [3]: 18.7 µM | TGI [4]: 5.67 µM | TGI [5]: 21.5 µM | TGI [6]: 24.4 µM | TGI [7]: 25.9 µM | TGI [8]: 28 µM | TGI [9]: 27.3 µM | TGI [10]: 21.2 µM

CC(=O)NNC(=S)/N=C/c1c(O)cc(C)oc1=O
TGI [1]: > 100 µM | TGI [2]: > 100 µM | TGI [3]: > 100 µM | TGI [4]: > 100 µM | TGI [5]: > 100 µM | TGI [6]: > 100 µM | TGI [7]: > 100 µM | TGI [9]: > 100 µM | TGI [10]: > 100 µM

COc1ccc2c(c1)CCCN1CCc3cc(OC)c(OC)cc3C21 (configuration not stated)
TGI [1]: > 100 µM | TGI [2]: > 100 µM | TGI [4]: > 100 µM | TGI [5]: > 100 µM | TGI [6]: > 100 µM | TGI [7]: > 100 µM | TGI [9]: > 100 µM | TGI [10]: > 100 µM

Cn1c2ccccc2n2c(=O)c3cccnc3c(C#N)c12
TGI [1]: > 100 µM | TGI [2]: > 100 µM | TGI [3]: > 100 µM | TGI [4]: > 100 µM | TGI [6]: > 100 µM | TGI [7]: > 100 µM | TGI [8]: > 100 µM | TGI [9]: > 100 µM | TGI [10]: > 100 µM

OCCN=C1c2ccccc2C2C(c3ccccc31)C1c3ccccc3C(=NCCO)c3ccccc3C21 (configuration not stated)
TGI [1]: 30.6 µM | TGI [2]: 44.4 µM | TGI [3]: > 100 µM | TGI [4]: 40.3 µM | TGI [5]: 53.8 µM | TGI [6]: 41.3 µM | TGI [7]: > 100 µM | TGI [9]: 39.5 µM | TGI [10]: 44 µM

O=C1CCCCC[C@]12SC[C@H]1CON=C12
TGI [1]: > 100 µM | TGI [2]: > 100 µM | TGI [3]: > 100 µM | TGI [4]: > 100 µM | TGI [6]: 42.2 µM | TGI [7]: > 100 µM | TGI [8]: 44.7 µM | TGI [9]: 58 µM | TGI [10]: > 100 µM
